Experimental data from patent US9125904B1, “Biphenyl imidazoles and related compounds useful for treating HCV infections” (ACHILLION PHARMACEUTICALS, INC., priority 2010, dated 2015).
Like-named read-outs stand apart in the source and are kept apart here.

Test system: HCV replicon
Assay: HCV replicon replication assay (NPT ELISA)
Assay type: cell-based
Conditions: Hepatitis C virus, 72 h, Huh-7 HCV replicon-containing cells, three days, read-out: EC50
Method: Compounds claimed herein are tested for the ability to inhibit viral replication of the Hepatitis C replicon in cultured cells in which the HCV replicon construct has been incorporated. The HCV replicon system was described by Bartenschlager, et. al (Science, 285, pp. 110-113 (1999)). The replicon system is predictive of in vivo anti-HCV activity; compounds that are active in humans uniformly evidence activity in the replicon assay.
In this assay HCV replicon containing cells are treated with different concentrations of the test compound to ascertain the ability of the test compound to suppress replication of the HCV replicon. As a positive control, HCV replicon-containing cells are treated with different concentrations of interferon alpha, a known inhibitor of HCV replication. The replicon assay system includes Neomycin Phosphotransferase (NPT) as a component of the replicon itself in order to detect the transcription of replicon gene products in the host cell. Cells in which the HCV replicon is actively replicating have high levels of NPT; the level of NPT is proportional to HCV replication. […] The NPT level of each sample is measured using a captured ELISA.
A protocol for testing compounds for the ability to inhibit viral replication of the Hepatitis C replicon cultured cells in which the replicon construct has been incorporated, follows.
The HCV replicon contains, 5′-3′, the HCV-IRES, the neomycin phosphotransferase (neo) gene, the IRES of encephalomyocarditis virus, which directs translation of HCV sequences NS3 to NS5B, and the 3′-NTR. The sequence of the HCV replicon has been deposited in GenBank (Accession no. AJ242652).
The replicon is transfected into Huh-7 cells using standard methods such as electroporation.
The equipment and materials include, but are not limited to, Huh-7 HCV replicon-containing cells, maintenance media (DMEM (Dulbecco's modified Eagle media) supplemented with 10% FBS, L-glutamine, non-essential amino acids, penicillin (100 units/ml), streptomycin (100 micrograms/ml), and 500 micrograms/ml of Geneticin (G418), screening media (DMEM supplemented with 10% FBS, L-glutamine, non-essential amino acids, penicillin (100 units/ml) and streptomycin (100 micrograms/ml)), 96 well tissue culture plates (flat bottom), 96 well plates (U bottom for drug dilution), Interferon alpha for positive control, fixation reagent (such as methanol: acetone), primary antibody (rabbit anti-NPTII), secondary antibody: Eu-N1 1, and enhancement solution.
HCV replicon-containing cells support high levels of viral RNA replicon replication when their density is suitable. Over-confluency causes decreased viral RNA replication. Therefore, cells must be kept growing in log phase in the presence of 500 micrograms/ml of G418. Generally, cells should be passed twice a week at 1: 4-6 dilution. Cell maintenance is conducted as follows:
HCV replicon-containing cells are examined under a microscope to ensure that cells growing well. Cells are rinsed once with PBS and 2 ml trypsin is added. The cell/trypsin mixture is incubated at 37° C. in a CO2 incubator for 3-5 minutes. After incubation 10 ml of complete media is added to stop the trypsinization reaction. Cells are blown gently, put into a 15 ml tube, and spun at 1200 rpm for 4 minutes. The trypsin/medium solution is removed. Medium (5 ml) is added and the cells are mixed carefully. The cells are counted.
The cells are then seeded onto 96-well plates at a density of 6000-7500 cells/100 microliters/well (6−7.5×10^5 cells/10 ml/plate). The plates are then incubated at 37° C. in a 5% CO2 incubator.
Cells are examined under a microscope approximated 24 hours after seeding and prior to adding drugs. If counting and dilution were performed correctly, cells are 60-70% confluent and nearly all cells should attach and spread evenly in the well.
HCV replicon-containing cells are rinsed with once PBS once; 2 mls of trypsin are then added. Cells are incubated at 37° C. in a 5% CO2 incubator for 3-5 minutes. […]

COC(=O)N[C@H](C(=O)N1C2CCC(C2)C1c1ncc(-c2ccc(-c3ccc(-c4cnc([C@@H]5CCCN5C(=O)[C@@H](NC(=O)OC)C(C)C)[nH]4)cc3)cc2)[nH]1)C(C)C (some centres unmarked) [Compound 57] was tested, and the EC50 (class symbols) was under 5 nM.

COC(=O)N[C@H](C(=O)N1CCCCCC1c1nc(-c2ccc(-c3ccc(-c4c[nH]c(C5CCCN5C(=O)[C@@H](NC(=O)OC)C(C)C)n4)cc3)cc2)c[nH]1)C(C)C (some centres unmarked) [Compound 59] gave an EC50 (class symbols) of under 5 nM.

For COC(=O)NC(C(=O)C1C(c2nc(-c3ccc(-c4ccc(-c5cnc([C@@H]6CCCN6C(=O)[C@@H](NC(=O)OC)C(C)C)[nH]5)cc4)cc3)c[nH]2)C2CC1[C@H](F)[C@@H]2F)C(C)C (some centres unmarked) [Compound 60], the EC50 (class symbols) was under 5 nM.

Compound COC(=O)N[C@H](C(=O)N1CCCCCC1c1nc(-c2ccc(-c3ccc(-c4c[nH]c(C5CCCCCN5C(=O)[C@@H](NC(=O)OC)C(C)C)n4)cc3)cc2)c[nH]1)C(C)C (stereo partly drawn) [Compound 61, dimethyl (2S,2′S)-1,1′-(2,2′-(4,4′-(biphenyl-4,4′-diyl)bis(1H-imidazole-4,2-diyl))bis(azepane-2,1-diyl))bis(3-methyl-1-oxobutane-2,1-diyl)dicarbamate] has an EC50 (class symbols) of under 50 nM.

With COC(=O)NC(C(=O)N1C2CCC(C2)C1c1nc(-c2ccc(-c3ccc(-c4c[nH]c(C5C=CCN5C(=O)[C@@H](NC(=O)OC)C(C)C)n4)cc3)cc2)c[nH]1)C(C)C (some centres unmarked) [Compound 62] the EC50 (class symbols) was under 5 nM.

In the case of COC(=O)N[C@H](C(=O)N1CCCCCC1c1nc(-c2ccc(-c3ccc(-c4c[nH]c(C5C6CCC(C6)N5C(=O)[C@@H](NC(=O)OC)C(C)C)n4)cc3)cc2)c[nH]1)C(C)C (some centres unmarked) [Compound 63], the EC50 (class symbols) is reported as under 5 nM.

Compound COC(=O)NC(C(=O)N1C2CCC(C2)C1c1nc2ccc(-c3ccc4[nH]c(C5C6CCC(C6)N5C(=O)[C@@H](NC(=O)OC)C(C)C)nc4c3)cc2[nH]1)C(C)C (some centres unmarked) [Compound 64] has an EC50 (numeric cells) of 619 nM.

In the case of COC(=O)N[C@H](C(=O)N1CCC[C@H]1C1=NC(c2ccc(-c3ccc4[nH]c([C@@H]5C6CCC(C6)N5C(=O)[C@@H](NC(=O)OC)C(C)C)nc4c3)cc2)CN1)C(C)C (some centres unmarked) [Compound 65], the EC50 (class symbols) is reported as under 5 nM.

COC(=O)N[C@H](C(=O)N1CCC[C@H]1c1ncc(-c2ccc(-c3ccc4oc(-c5cnc([C@@H]6C7CCC(C7)N6C(=O)[C@@H](NC(=O)OC)C(C)C)[nH]5)cc4c3)cc2)[nH]1)C(C)C (some centres unmarked) [Compound 70] gave an EC50 (class symbols) of under 5 nM.

With COC(=O)N[C@H](C(=O)N1CCC[C@H]1c1ncc(-c2cc3cc(-c4ccc(-c5cnc([C@@H]6C7CCC(C7)N6C(=O)[C@@H](NC(=O)OC)C(C)C)[nH]5)cc4)ccc3o2)[nH]1)C(C)C (some centres unmarked) [Compound 71] the EC50 (class symbols) was under 5 nM.

With COC(=O)N[C@H](C(=O)N1C2CCC(C2)[C@H]1c1nc(-c2ccc(/C=C/c3ccc(-c4cnc([C@@H]5C6CCC(C6)N5C(=O)[C@@H](NC(=O)OC)C(C)C)[nH]4)cc3)cc2)c[nH]1)C(C)C (some centres unmarked) [Compound 72] the EC50 (class symbols) was under 5 nM.

COC(=O)N[C@H](C(=O)N1C2CC(F)C(C2)C1c1ncc(-c2ccc(-c3ccc(-c4cnc([C@@H]5CCCN5C(=O)[C@@H](NC(=O)OC)C(C)C)[nH]4)cc3)cc2)[nH]1)C(C)C (some centres unmarked) [Compound 73] showed an EC50 (class symbols) of under 5 nM.

For COC(=O)N[C@H](C(=O)N1C2CCC(C2)[C@H]1c1nc(-c2ccc(-c3c[nH]c([C@@H]4C5CCC(C5)N4C(=O)[C@@H](NC(=O)OC)C(C)C)n3)cc2)c[nH]1)C(C)C [Compound 74], the EC50 (class symbols) was under 50 nM.

COC(=O)N[C@H](C(=O)N1C2CCC(C2)[C@H]1c1nc(-c2ccc3c(c2)Cc2cc(-c4c[nH]c([C@@H]5C6CCC(C6)N5C(=O)[C@@H](NC(=O)OC)C(C)C)n4)ccc2-3)c[nH]1)C(C)C [Compound 75] was tested, and the EC50 (class symbols) was under 5 nM.
